Results as given in patent publication US20230416268A1, “PYRIMIDINONE-CONTAINING 17-BETA-HYDROXYSTEROID DEHYDROGENASE TYPE 13 INHIBITORS” (ENANTA PHARMACEUTICALS, INC., priority 2022, published 2023).

molecular target: Recombinant human 17β-HSD13 (Homo sapiens (Human), UniProt Q7Z5P4); assay: 17β-HSD13 rapid-fire mass spectrometry assay (RF/MS assay); format: biochemical; details: HSD17B13 80 nM, LTB4 10 μM, NAD+ 0.5 mM, RT 3 h, RF/MS readout
Description: 17β-HSD13 rapid-fire mass spectrometry assay (RF/MS assay). Recombinant human 17β-HSD13 was expressed and purified from sf9 cells at Charles River Labs (Saffron Walden, UK). […] The assays were quenched by adding 20 μL of 0.15% aqueous formic acid and the plates were frozen at −80° C. RF/MS analysis was performed at PureHoney Technologies (Billerica, MA) on a RapidFire RF300 system (Agilent Technologies, Inc.) coupled to an API 4000 triple quadrupole mass spectrometer (Sciex) equipped with Agilent RapidFire cartridge type A (C4). The mobile phase was 0.09% formic acid and 0.01% trifluoracetic acid in water (Buffer A) and 0.09% formic acid and 0.01% trifluoracetic acid in 80% aqueous acetonitrile (Buffer B). The RapidFire method conditions were the following: 250 ms aspirate, 3000 ms load/desalt, 4000 ms elute, and 500 ms re-equilibrate. RF-MS/MS was performed in negative polarity (−4500 V), the source temperature was 650° C., and gas 1 and gas 2 settings for nitrogen were set to 50. The curtain gas and collision gas were also nitrogen and were set to 20 and 12, respectively.
Data Analysis. 17β-HSD13 enzyme activity was measured as percent conversion of extracted ion counts and normalized to high and low controls to determine percent residual activity at various concentrations of test compounds. Data were fitted to normalized activity (variable slope) versus concentration fit in GraphPad Prism 7 to determine IC50. All experiments were run in duplicates.

Chain of Recombinant human 17β-HSD13 (Q7Z5P4 20-300): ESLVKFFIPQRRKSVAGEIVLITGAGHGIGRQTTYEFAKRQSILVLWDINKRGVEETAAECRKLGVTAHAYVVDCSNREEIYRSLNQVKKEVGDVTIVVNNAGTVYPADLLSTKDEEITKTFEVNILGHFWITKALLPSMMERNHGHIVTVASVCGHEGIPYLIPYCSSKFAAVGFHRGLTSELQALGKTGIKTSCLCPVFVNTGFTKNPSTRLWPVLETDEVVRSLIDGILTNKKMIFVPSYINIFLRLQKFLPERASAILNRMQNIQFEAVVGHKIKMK

SMILES | IC50 [nM]
COc1ccc(-c2nc3sc4c(OC(=O)C(C)(C)C)cccc4c3c(=O)n2Cc2cnco2)c(C2CC2)c1 [Example 89] | > 10000
COC(=O)NCCn1c(-c2ccc(OC)cc2C2CC2)nc2sc3c(O)cccc3c2c1=O [Example 45] | 100 to 1000
CC(C)Oc1ccc(-c2nc3sc4c(O)cccc4c3c(=O)n2Cc2cnco2)c(C2CC2)c1 [Example 83] | < 100
COc1ccc(-c2nc3sc4c(O)cccc4c3c(=O)n2CCN(C)Cc2ccncc2)c(C2CC2)c1 [Example 26] | < 100
COc1ccc(-c2nc3sc4c(O)cccc4c3c(=O)n2C/C=C/C(=O)N(C)C)c(C2CC2)c1 [Example 42] | < 100
COc1ccc(-c2nc3sc4c(O)cccc4c3c(=O)n2Cc2cc(C)no2)c(C2CC2)c1 [Example 66] | < 100
COc1ccc(-c2nc3sc4c(OC(=O)[C@H](C)N)cccc4c3c(=O)n2Cc2cncs2)c(C2CC2)c1 [Example 33] | < 100
O=c1c2c(nc(-c3ccc(F)cc3C3CC3)n1Cc1cc(C(F)(F)F)no1)sc1c(O)cccc12 [Example 77] | < 100
COc1ccc(-c2nc3sc4c(O)cccc4c3c(=O)n2CCN2CCC(O)CC2)c(C2CC2)c1 [Example 24] | < 100
COc1ccc(-c2nc3sc4c(O)cccc4c3c(=O)n2C2CC2)c(C2CC2)c1 [Example 54] | 100 to 1000
COc1ccc(-c2nc3sc4c(O)cccc4c3c(=O)n2CCN2CCN(C)CC2)c(C2CC2)c1 [Example 18] | < 100
COc1ccc(-c2nc3sc4c(O)cccc4c3c(=O)n2CCNS(=O)(=O)c2ccc(F)cc2)c(C2CC2)c1 [Example 50] | 100 to 1000
COc1ccc(-c2nc3sc4c(O)cccc4c3c(=O)n2CC2CC2)c(C2CC2)c1 [Example 59] | 100 to 1000
O=c1c2c(nc(-c3ccc(F)cc3C3CC3)n1CCCc1nc3ccccc3o1)sc1c(O)cccc12 [Example 86] | < 100
COc1ccc(-c2nc3sc4c(O)cccc4c3c(=O)n2CCNCc2ccncc2)c(C2CC2)c1 [Example 21] | < 100
CCn1c(-c2ccc(OC)cc2C2CC2)nc2sc3c(O)cccc3c2c1=O [Example 56] | < 100
O=c1c2c(nc(-c3ccc(F)cc3C3CC3)n1Cc1cncs1)sc1c(O)cccc12 [Example 46] | < 100
COc1ccc(-c2nc3sc4c(O)cccc4c3c(=O)n2C)c(C2CC2)c1 [Example 53] | < 100
COc1ccc(-c2nc3sc4c(O)cccc4c3c(=O)n2Cc2cnco2)c(C2CC2)c1 [Example 64] | < 100
CCC(=O)Oc1cccc2c1sc1nc(-c3ccc(OC)cc3C3CC3)n(Cc3cnco3)c(=O)c12 [Example 2, 2-(2-cyclopropyl-4-methoxyphenyl)-3-(oxazol-5-ylmethyl)-4-oxo-3,4-dihydrobenzo[4,5]thieno[2,3-d]pyrimidin-8-yl propionate] | < 100

The next lines start with the values.

IC50 [nM] | SMILES
< 100 | COc1ccc(-c2nc3sc4c(O)cccc4c3c(=O)n2CCOC(=O)N2CCOCC2)c(C2CC2)c1 [Example 35]
< 100 | COc1ccc(-c2nc3sc4c(O)cccc4c3c(=O)n2CCN(C)Cc2cccnc2)c(C2CC2)c1 [Example 27]
< 100 | COc1ccc(-c2nc3sc4c(O)cccc4c3c(=O)n2CCNCc2ccccn2)c(C2CC2)c1 [Example 22]
< 100 | COc1ccc(-c2nc3sc4c(O)cccc4c3c(=O)n2CCNCc2nnn(C)n2)c(C2CC2)c1 [Example 41]
< 100 | COc1ccc(-c2nc3sc4c(O)cccc4c3c(=O)n2Cc2ccnc(C)c2)c(C2CC2)c1 [Example 12]
< 100 | O=c1c2c(nc(-c3ccc(F)cc3C3CC3)n1CCCc1nc3ccccc3s1)sc1c(O)cccc12 [Example 85]
< 100 | COc1ccc(-c2nc3sc4c(O)cccc4c3c(=O)n2CCN2CCNCC2)c(C2CC2)c1 [Example 19]
< 100 | O=c1c2c(nc(-c3ccc(F)cc3C3CC3)n1Cc1cnoc1)sc1c(O)cccc12 [Example 70]
< 100 | O=c1c2c(nc(-c3ccc(F)cc3C3CC3)n1Cc1cnco1)sc1c(O)cccc12 [Example 69]
< 100 | COc1ccc(-c2nc3sc4c(O)cccc4c3c(=O)n2CCN2CCOCC2)c(C2CC2)c1 [Example 17]
